Results: patent publication US11767506B2, “In vitro maturation culture medium of immature oocytes and use thereof” (CHINA AGRICULTURAL UNIVERSITY, priority 2017, dated 2023)

Tests used:
human immature oocytes = assay: In vitro maturation of human immature oocytes on granule cell feeder layer, then ICSI and embryo culture; type: cell-based
Procedure: Microdrop culture of granule cells: the cumulus oocyte complex collected from superovulation of patients were digested with hyaluronidase and then centrifuged to obtain the granule cells; the cells were cultured in the culture solution for in vitro maturation of examples 1˜6 for microdroplet adherent culture respectively. The microdroplets were covered with liquid paraffin. After the granule cells adhered to the wall of the culture dishes, the resultants could be used as the culture medium 1˜6 for in vitro maturation of immature oocytes.
The immature oocytes identified from superovulation of patients were put in the culture medium for in vitro maturation 1 (i.e., the culture medium obtained by using the culture solution for in vitro maturation of Example 1) containing feeder layer cells for microdrop culture. There were 1˜2 oocytes per microdroplet, culture time 20˜25 h, and culture conditions: 37° C., air with 5% CO2 and 6% of O2, and humidity 100%. The development results of the immature oocytes after microdroplet culturing in the culture medium for in vitro maturation 1 were shown in FIG. 1.
Intracytoplasmic sperm injection (ICSI) using the mature oocytes: the immature oocytes were culture in vitro for 20˜25 h, the maturation status was observed. The oocytes reached the metaphase II (MII) were placed under micromanipulator for ICSI injection.
Embryo culture after fertilization: embryo culture medium G-1PLUS™ (Vitrolife, Sweden) was used to make several 50 μL microdroplets in a 35 mm culture dish. Mineral oil was covered on the surface of the droplets. This culture medium was suitable for culturing embryos from fertilized oocyte (0 day) to 8-cell embryo.
Embryo culture medium G-2 PLUS™ (Vitrolife. Sweden) was used to make several 50 μL microdroplets in a 35 mm Petri culture dish. Mineral oil was covered on the surface of the droplets. This culture medium was suitable for culturing embryos from 8-cell stage until blastocyst stage.
The common medium for maturation was M199 culture medium.

mouse oocytes = assay: In vitro maturation of mouse immature oocytes (cumulus oocyte complexes) on mouse granule cells, fertilization and embryo culture; type: cell-based, C57/BL6J mice
Text: The specific culture method was referred to Example 8, and the differences were: instead of the granule cells form patients, granule cells from C57/BL6J mice were used; instead of the oocytes form patients, cumulus oocyte complexes form C57/BL6J mice were used.

[1] = system: oocyte in follicle of mouse; assay: In vitro follicle culture model, recovery of oocyte meiosis; type: cell-based; settings: FIG. 2A
[2] = system: human ovary granule cells; assay: Expression/secretion of EGF-like growth factors (AREG) by granule cells; type: cell-based; settings: FIG. 1F
Procedure: Correspondingly, our experiments were performed by: under conditions of in vitro culture, simulating the effect of LH, which functions on granule cells to promote the maturation of oocytes in vivo, so as to achieve the goal of promoting the maturation of oocytes and meanwhile, improving the development potential.

Cc1ccc(NC(=O)CCCCCC(=O)Nc2ccccc2N)cc1 [HDACi 4b]
maturation and development of human oocytes from germinal vesicle (GV) stage into metaphase II (MII) stage (human immature oocytes; FIG. 1A): promotes the maturation and development
numbers of 2 pronucleus zygotes (2PN) obtained by ICSI fertilization on MII oocytes (human immature oocytes; FIG. 1B, treated group versus control group): basically the same
cleavage ability of treated oocytes after fertilization (human immature oocytes; FIG. 1C): significantly improved
development ability of embryos (blastocyst counting) (human immature oocytes; FIG. 1E): significantly increased
quality of blastocysts (immunofluorescence of OCT4 and CDX2) (human immature oocytes; FIG. 1G): significantly improved
maturation and development ability of mouse oocytes (mouse oocytes; FIG. 2): significantly promotes
oocyte stepping over the first meiosis to metaphase II (MII) (mouse oocytes; FIG. 2C): significantly promotes
cleavage abilities after fertilization (mouse oocytes; FIG. 2D, versus control group): basically the same
ability to develop into an embryo from fertilized GV stage oocytes (mouse oocytes; FIG. 2E): significantly improved
ability to develop into a blastocyst from fertilized treated oocytes (mouse oocytes; FIG. 2F): significantly increased
ability to develop into a blastocyst (blastocyst counting) from fertilized treated GV stage oocytes (mouse oocytes; FIG. 2H): significantly increased
quality of blastocysts (immunofluorescence of OCT4) (mouse oocytes; FIG. 2I): significantly increased
recovery of oocyte meiosis in follicle of mouse [1]: significantly promotes
expression of AREG [2]: significantly promotes
